In patent US20230210929A1, “MATERIALS AND METHODS FOR BLOCKING MALARIA INFECTION AND TRANSMISSION” (THE FLORIDA INTERNATIONAL UNIVERSITY BOARD OF TRUSTEES, priority 2021, published 2023):
Values joined by “and” are separate entries in the source; they are usually repeats but may differ in a detail not shown here. Equal entries are not always repeated. “Also recorded” adds a separate entry of the source.

Legend:
[1] = tested on: asexual-stage P. falciparum; assay: Inhibition assay of asexual Plasmodium falciparum proliferation; assay type: cell-based
Procedure: The 3-5-day cultured iRBC were mixed with fresh human RBCs (AB+ type) in complete RPMI-1640 to prepare cultures with 0.5% parasitemia and 2% hematocrit. Pulixin was dissolved in DMSO at the concentration of 1 mg/mL and diluted with DMSO to various levels. A 2 μL pulixin solution mixed with 1 mL of cell culture was added to a 24-well plate. The plate was incubated in a candle jar at 37° C. Approximately 48 h later, the medium was replaced with fresh medium containing same concentration of pulixin. Parasitemia was recorded at 24, 48, 72, and 96 h post-incubation. The test for each concentration was replicated three times. EC50 was determined by analyzing the dose-response curve obtained with GraphPad Prism (GraphPad Software, CA, USA). The assays were repeated.

[2] = tested on: P. falciparum gametocytes; assay: Conversion ratio from gametocytes to ookinetes; assay type: cell-based; conditions: pulixin 40 μM
Procedure: P. falciparum (NF54) was cultured in the complete RPMI-1640 medium containing 4% new 0+ human red blood cells, 10% human AB+ serum, and 12.5 μg/mL of hypoxanthine in a candle jar at 37° C. To prepare P. falciparum ookinetes, 5 mL of day-15 cultured P. falciparum containing ˜2% stage V gametocytes were transferred into a 15 mL centrifuge tube and centrifuged at 650×g for 5 min at RT. The pellet was then resuspended in 500 μL of sterile ookinete culture medium (RPMI-1640 medium containing 20% human serum AB+, 50 μg/mL of hypoxanthine, 2 g/L NaHCO3). The resuspended cells were transferred into a well of a 12-well plate and incubated at room temperature on a shaker (20 rpm) for 24 h to generate ookinetes. Finally, cell mixtures of the ookinetes, gametocytes, and asexual-stage P. falciparum were collected by centrifugation at 650×g for 5 min at RT.
The 15-17-day-old cultured P. falciparum was collected by centrifugation at 500×g for 3 min. The pellets were suspended in ookinete culture medium (incomplete RPMI-1640 containing 20% human serum AB+, 50 μg/mL of hypoxanthine, and 2 g/L of NaHCO3) to obtain 10^5 gametocytes per μL. […] After incubation on a shaker (20 rpm) at RT for 18-24 h, the ookinetes and gametocytes were counted using a Giemsa-stained blood smear under a bright-field microscope. The ratios of gametocytes to ookinetes were calculated.

[3] = tested on: interaction between FREP1 and P. falciparum-infected cell lysate; assay: ELISA of FREP1 binding to P. falciparum-infected cell lysate; conditions: pulixin 5 μg/mL
Procedure: Small molecules that inhibited the FREP1-Plasmodium interaction to block malaria transmission were screened. In brief, P. falciparum-infected (NF54 obtained from the BEI Resources, Manassas, Va., USA) red blood cells (iRBCs) were cultured for 15-17 days. The iRBCs suspended in PBST (PBS containing 0.2% Tween-20) was homogenized by ultra-sonication with six cycles of 10 s of pulse and 50 s of resting on ice for each period. The lysates were centrifuged at 8,000×g for 2 min to remove insoluble materials and cellular debris. Then, 96-well ELISA plates were coated with 50 μL of the iRBC lysate (2 mg/mL protein) overnight at 4° C. After coating, the wells were blocked with 100 μL of 2% bovine serum albumin (BSA) in PBS per well for 1.5 h at room temperature (RT). After removal of the blocking solution, 49 μL of FREP1 (10 μg/mL) in blocking buffer (PBS containing 2% BSA) and 1 μL of fungal extract (2 mg/mL in DMSO) were added to each well, followed by incubation for 1 h at RT. […] Finally, each well was developed with 50 μL of pNPP substrate (Sigma-Aldrich) until the colors were visible, and absorbance at 405 nm was measured. […]
The 15-17-day cultured P. falciparum infected cell lysate was prepared as described above. […] Rabbit anti-FREP1 polyclonal antibodies quantified the retained FREP1 as described above. After reaction with the pNPP, A405 was measured. […]

[4] = tested on: human embryonic kidney 293 (HEK293) cells; assay: General cytotoxicity MTT assay; assay type: cell-based; conditions: 24 h
Procedure: A drug could kill a cell or inhibit the cell proliferation through general cytotoxicity. Vybrant® MTT (3-(4,5-dimethylthiazol-2-yl)-2,5-diphenyl tetrazolium bromide) Cell Proliferation Assay (Thermo Fisher) was used to analyze living cells. The human embryonic kidney 293 (HEK293) cell line was used as the experimental cells. About 20,000 HEK293 cells in 100 μL of culture medium (RPMI 1640+2 mM glutamine+10% fetal bovine serum) were seeded per well in 96-well microplates. After incubation at 37° C. with 5% CO2 for 24 h, 1 μL of pulixin in DMSO at various dilutions was added into each well to obtain a final concentration of 0, 1, 3, 10, 30, and 100 μg/mL. Three replicates were conducted for each concentration. Following the incubation at 37° C. with 5% CO2 for 24 h, 10 μL, of MTT (5 mg/mL in PBS) was added into each well and incubated for 4 h at 37° C. with 5% CO2. All but 25 μL of the medium was removed from the wells, 100 μL of DMSO was added to each well and incubated at 37° C. for 10 min to dissolve formazan crystals for measurement. Optical density was measured at an absorbance wavelength of 540 nm. The data were analyzed using ANOVA in Prism 8 (GraphPad, San Diego, Calif.). The experiment was independently performed twice.

[5] = tested on: P. falciparum transmission to An. gambiae; assay: Standard membrane feeding assay (SMFA), transmission-blocking activity by feeding; assay type: in vivo
Procedure: The 15-17-day-old cultured P. falciparum iRBCs containing 2-3% stage V gametocytes were collected and diluted with new O+ type human blood, with the same volume of heat-inactivated AB+ human serum added. The final concentration of stage V gametocytes in the blood was around 0.2%. Then, 3 μL of the candidate fungal extract or pulixin with different concentrations in DMSO was mixed with 297 μL of infected blood and was used to feed about 100 3-5-day-old An. gambiae G3 female mosquitoes for 30 min, and the engorged mosquitoes were maintained with 8% sugar in a BSL-2 insectary (28° C., 12 h light/dark cycle, 80% humidity). The midguts were dissected 7 days after infection and stained with 0.1% mercury dibromofluorescein disodium salt in PBS. The oocysts were counted under a light microscope.

**Q.** How did the EC50 ([1]; Plasmodium falciparum, 96 h, parasitemia on day 4, read-out: EC50 inhibiting development of asexual-stage P. falciparum) turn out when `Cc1cc(N)cc2oc(=O)c3c(O)cc(O)cc3c12` [pulixin, 3-amino-7,9-dihydroxy-1-methyl-6H-benzo[c]chromen-6-one] was run?
**A.** 0.012 µg/mL and 47 nM

**Q.** And the “P. falciparum-infected cells on day 4 versus control (0 μg/mL)” value ([1]; pulixin greater than 0.01 μg/mL)?
**A.** Significantly fewer

**Q.** And the “conversion of gametocytes to ookinetes versus control” value [2]?
**A.** no significant difference; also recorded: did not inhibit

**Q.** What about the “inhibition of the interaction between the FREP1 protein and P. falciparum-infected cell lysate” value [3] of the same molecule?
**A.** about 50%

**Q.** What about the “density of living HEK293 cells versus control” value ([4]; pulixin 0 to 30 μg/mL (116 μM)) of the same molecule?
**A.** No significant difference

**Q.** What about the “density of living HEK293 cells versus other concentrations” value ([4]; pulixin 100 μg/mL) of the same molecule?
**A.** significant reduction; also recorded: significantly lower

**Q.** What about the EC50 ([5]; Anopheles gambiae, 168 h, read-out: EC50, concentration that inhibits 50% of infection intensity (number of oocysts per mosquito)) of the same molecule?
**A.** 11 µM

**Q.** What about the “inhibition of malaria transmission” value ([5]; pulixin 40 μM in infected blood) of the same molecule?
**A.** completely inhibited; also recorded: completely blocked
